Laboratory results as given in patent publication US4820695A, “C-20-dihydro-deoxy-(cyclic amino)-derivatives of macrolide antibiotics” (priority 1987, dated 1989).
Converted amounts (≈) assume the structure as drawn. Read-outs that look alike come from different tables or passages of the source.

What was measured:
[1] = system: Streptococcus pyogenes C203; assay: ED50 in mice experimentally infected with S. pyogenes C203 (Table XI); assay type: in vivo; conditions: doses given 1 and 4 hours postinfection
Experimental: The C-20 modified derivatives of this invention have shown in vivo antimicrobial activity against experimentally-induced infections in laboratory animals. When two doses of test compound were administered to mice experimentally infected with S. pyogenes C203, the activity observed was measured as an ED50 value [effective dose in mg/kg to protect 50% of the test animals: see Warren Wick, et al., J. Bacteriol. 81, 233-235 (1961)].
^a mg/kg × 2; doses given 1 and 4 hours postinfection

[2] = system: Streptococcus Group D 2041; assay: MIC, standard agar-dilution assay (Table IX); assay type: cell-based; conditions: GROUPD2041, read-out: MIC
[3] = system: Streptococcus sp. 19F; assay: MIC, broth-dilution microtiter test (Table X); assay type: cell-based; conditions: read-out: MIC
Source text: (§1) The MIC's in Table X were obtained using conventional broth-dilution microtiter tests.

[4] = system: Pasteurella multocida 60A; assay: MIC, broth-dilution microtiter test (Table X); assay type: cell-based; conditions: Avian isolate, read-out: MIC
Source text: as §1

[5] = system: Mycoplasma gallisepticum 29C; assay: MIC, broth-dilution microtiter test (Table X); assay type: cell-based; conditions: Mycoplasmoides gallisepticum, read-out: MIC
Source text: as §1

[6] = system: Staphylococcus aureus; assay: MIC, broth-dilution microtiter test (Table X); assay type: cell-based; conditions: read-out: MIC
Source text: as §1

[7] = system: Pasteurella hemolytica 22C; assay: MIC, broth-dilution microtiter test (Table X); assay type: cell-based; conditions: read-out: MIC
Source text: as §1

[8] = system: Pasteurella multocida 17E; assay: MIC, broth-dilution microtiter test (Table X); assay type: cell-based; conditions: Bovine isolate, read-out: MIC
Source text: as §1

[9] = system: Mycoplasma synoviae 40A; assay: MIC, broth-dilution microtiter test (Table X); assay type: cell-based; conditions: Mycoplasmopsis synoviae, read-out: MIC
Source text: as §1

[10] = system: Mycoplasma hyorhinis 29E; assay: MIC, broth-dilution microtiter test (Table X); assay type: cell-based; conditions: read-out: MIC
Source text: as §1

[11] = system: Mycoplasma hyopneumoniae S5972; assay: MIC, broth-dilution microtiter test (Table X); assay type: cell-based; conditions: Mesomycoplasma hyopneumoniae, read-out: MIC
Source text: as §1

[12] = system: Staphylococcus epidermidis 222; assay: MIC, standard agar-dilution assay (Table IX); assay type: cell-based; conditions: read-out: MIC
[13] = system: Staphylococcus aureus V41; assay: MIC, standard agar-dilution assay (Table IX); assay type: cell-based; conditions: Staphylococcus aureus V41, Penicillin-resistant strain, read-out: MIC
[14] = system: Streptococcus pneumoniae Park I; assay: MIC, standard agar-dilution assay (Table IX); assay type: cell-based; conditions: Streptococcus pneumoniae Park I; agar-dilution; read-out: MIC
[15] = system: Haemophilus influenzae 76; assay: MIC, standard agar-dilution assay (Table IX); assay type: cell-based; conditions: Haemophilus influenzae 76, Ampicillin-resistant strain, read-out: MIC
[16] = system: Staphylococcus epidermidis EPI1; assay: MIC, standard agar-dilution assay (Table IX); assay type: cell-based; conditions: Staphylococcus epidermidis EPI1; agar-dilution; read-out: MIC
[17] = system: Streptococcus Group D X66; assay: MIC, standard agar-dilution assay (Table IX); assay type: cell-based; conditions: read-out: MIC
[18] = system: Escherichia coli EC14; assay: MIC, standard agar-dilution assay (Table IX); assay type: cell-based; conditions: read-out: MIC
[19] = system: Klebsiella X26; assay: MIC, standard agar-dilution assay (Table IX); assay type: cell-based; conditions: read-out: MIC
[20] = system: Haemophilus influenzae C.L.; assay: MIC, standard agar-dilution assay (Table IX); assay type: cell-based; conditions: Ampicillin-sensitive strain, read-out: MIC
[21] = system: Streptococcus pyogenes C203; assay: MIC, standard agar-dilution assay (Table IX); assay type: cell-based; conditions: read-out: MIC
[22] = system: Staphylococcus aureus X400; assay: MIC, standard agar-dilution assay (Table IX); assay type: cell-based; conditions: Staphylococcus aureus X400, Methicillin-resistant strain, read-out: MIC
[23] = Titratable groups in 66% aqueous DMF (Tables XIV-XVI); assay type: physicochemical
Source text: ^c Run in 66% aqueous DMF
^d Run in 66% aqueous DMF

[24] = system: Escherichia coli TEM; assay: MIC, standard agar-dilution assay (Table IX); assay type: cell-based; conditions: read-out: MIC
[25] = system: Staphylococcus aureus S13E; assay: MIC, standard agar-dilution assay (Table IX); assay type: cell-based; conditions: Staphylococcus aureus, S13E
[26] = system: Staphyloccus aureus X1.1; assay: MIC, standard agar-dilution assay (Table IX); assay type: cell-based, Staphylococcus aureus; conditions: Staphylococcus aureus, read-out: MIC
[27] = system: Escherichia coli N10; assay: MIC, standard agar-dilution assay (Table IX); assay type: cell-based; conditions: read-out: MIC
[28] = Titratable groups (first value)

SMILES | MIC [2] [µg/mL] | MIC [3] [µg/mL] | MIC [4] [µg/mL] | MIC [5] [µg/mL] | MIC [6] [µg/mL] | MIC [7] [µg/mL] | MIC [8] [µg/mL] | MIC [9] [µg/mL] | MIC [10] [µg/mL] | MIC [11] [µg/mL] | MIC [12] [µg/mL] | MIC [13] [µg/mL] | MIC [14] [µg/mL] | MIC [15] [µg/mL] | MIC [16] [µg/mL] | MIC [17] [µg/mL] | MIC [18] [µg/mL] | MIC [19] [µg/mL] | MIC [20] [µg/mL] | MIC [21] [µg/mL] | also measured
CCC1OC(=O)CC(O)C(C)C(OC2OC(C)C(O)C(N(C)C)C2O)C(CCN2CC(C)CC(C)C2)CC(C)C(=O)C=CC(C)=CC1COC1OC(C)C(O)C(OC)C1OC (racemic) [Compound D35] | – | – | – | – | – | – | – | – | – | – | – | – | – | – | – | – | – | – | – | – | ED50 ([1]; Oral): 10.93 mg/kg × 2; ED50 ([1]; Subcutaneous): 0.88 mg/kg × 2
CCC1OC(=O)CC(O)C(C)C(OC2OC(C)C(O)C(N(C)C)C2O)C(CCN2CCC(O)CC2)CC(C)C(=O)C=CC(C)=CC1COC1OC(C)C(O)C(OC)C1OC (centres unmarked) [Compound D3, 20-DH-DO-20-(4-hydroxypiperidin-1-yl)desmycosin] | 32 (≈ 37.3 µM) | 12.5 (≈ 14.6 µM) | 50 (≈ 58.3 µM) | 25 (≈ 29.2 µM) | 12.5 (≈ 14.6 µM) | 50 (≈ 58.3 µM) | 50 (≈ 58.3 µM) | 6.25 (≈ 7.29 µM) | 50 (≈ 58.3 µM) | 6.25 (≈ 7.29 µM) | 4 (≈ 4.67 µM) | 8 (≈ 9.33 µM) | 8 (≈ 9.33 µM) | 64 (≈ 74.7 µM) | 8 (≈ 9.33 µM) | 128 (≈ 149 µM) | > 128 | 64 (≈ 74.7 µM) | 64 (≈ 74.7 µM) | 1 (≈ 1.17 µM) | MIC [22]: 16 µg/mL (≈ 18.7 µM); pKa ([23]; Titratable groups): 8.7; pKa [23, 28]: 7.1; MIC [24]: > 128 µg/mL; MIC [25]: 8 µg/mL (≈ 9.33 µM); MIC [26]: 8 µg/mL (≈ 9.33 µM); MIC [27]: > 128 µg/mL
CCC1OC(=O)CC(O)C(C)C(OC2OC(C)CC(N(C)C)C2O)C(CCN2CCCCCC2)CC(C)C(=O)C=CC(C)=CC1COC1OC(C)C(O)C(OC)C1OC (centres unmarked) [Compound D5a, 20-DH-DO-20-(Hexahydroazepin-1-yl)-4'-deoxydesmycosin] | 2 (≈ 2.38 µM) | 0.78 (≈ 0.93 µM) | 3.12 (≈ 3.72 µM) | 0.78 (≈ 0.93 µM) | 0.39 (≈ 0.465 µM) | 3.12 (≈ 3.72 µM) | 6.25 (≈ 7.45 µM) | 0.195 (≈ 0.232 µM) | 3.12 (≈ 3.72 µM) | 0.195 (≈ 0.232 µM) | 0.25 (≈ 0.298 µM) | 0.5 (≈ 0.596 µM) | 0.25 (≈ 0.298 µM) | 8 (≈ 9.53 µM) | 0.5 (≈ 0.596 µM) | 2 (≈ 2.38 µM) | 128 (≈ 153 µM) | 8 (≈ 9.53 µM) | 8 (≈ 9.53 µM) | 0.25 (≈ 0.298 µM) | ED50 ([1]; Streptococcus pyogenes, C203, Oral, read-out: ED50): 34 mg/kg; ED50 ([1]; Streptococcus pyogenes, C203, sc, Subcutaneous, read-out: ED50): 1.5 mg/kg; MIC [22]: 1 µg/mL (≈ 1.19 µM); MIC [24]: 8 µg/mL (≈ 9.53 µM); MIC [25]: 0.5 µg/mL (≈ 0.596 µM); MIC [26]: 0.5 µg/mL (≈ 0.596 µM); MIC [27]: 64 µg/mL (≈ 76.3 µM)
CCC1OC(=O)CC(O)C(C)C(OC2OC(C)C(O)C(N(C)C)C2O)C(CCN2CCC(N3CCCCC3)CC2)CC(C)C(=O)C=CC(C)=CC1COC1OC(C)C(O)C(OC)C1OC (centres unmarked) [Compound D13, 20-DH-DO-20-[(4-piperidino)piperidin-1-yl]desmycosin] | 2 (≈ 2.16 µM) | 6.25 (≈ 6.76 µM) | 12.5 (≈ 13.5 µM) | 6.25 (≈ 6.76 µM) | 3.12 (≈ 3.38 µM) | 12.5 (≈ 13.5 µM) | 12.5 (≈ 13.5 µM) | 1.56 (≈ 1.69 µM) | 50 (≈ 54.1 µM) | 3.12 (≈ 3.38 µM) | 0.25 (≈ 0.27 µM) | 1 (≈ 1.08 µM) | 2 (≈ 2.16 µM) | 8 (≈ 8.66 µM) | 1 (≈ 1.08 µM) | 2 (≈ 2.16 µM) | > 128 | 16 (≈ 17.3 µM) | 16 (≈ 17.3 µM) | 2 (≈ 2.16 µM) | MIC [22]: 1 µg/mL (≈ 1.08 µM); pKa ([23]; Titratable groups): 9.2; pKa [23, 28]: 6; MIC [24]: > 128 µg/mL; MIC [25]: 1 µg/mL (≈ 1.08 µM); MIC [26]: 0.5 µg/mL (≈ 0.541 µM); MIC [27]: > 128 µg/mL
